{"source": "patent US20240399000A1", "about": "“GADOLINIUM-BASED COMPOUND AND MRI CONTRAST AGENT COMPRISING SAME” (KYUNGPOOK NATIONAL UNIVERSITY INDUSTRY-ACADEMIC COOPERATION …, priority 2021, published 2024)", "key": {"[1]": {"assay": "Measurement of relaxivity (r1, r2) in 3T MRI phantom", "format": "physicochemical", "settings": "tertiary distilled water, 0.0625-1 mM, linear regression, in mM-1 s-1 (unit assumed)", "method": "The relaxivity (r1, r2) of each of synthesized Gd-DO3A-Pca, and cyclic commercial contrast agents Gadovist® and Dotarem® as comparison groups material was measured. Specifically, a phantom was prepared by diluting the gadolinium complex in tertiary distilled water to five concentrations (0.0625, 0.125, 0.25, 0.5, 1 mM), and then T1 and T2 relaxation times were measured in 3T MRI. Thus, R (Relaxation rate=1/T) of each concentration was calculated and the relaxivity (r1, r2) result of the gadolinium complex was obtained through linear regression analysis (see FIG. 3) and shown in a following Table 1."}, "[2]": {"target": "amyloid beta polymer (Homo sapiens, UniProt P05067)", "sequence (P05067 672-713 limits assumed)": "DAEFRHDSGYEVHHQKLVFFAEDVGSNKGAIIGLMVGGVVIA", "assay": "Amyloid beta polymer targeting ability, MRI phantom experiment (9.4T)", "format": "binding", "settings": "incubated with amyloid beta polymer 37° C. 24 hours, washed, 9.4T MR", "method": "(1) 221.5 uL of HFIP was added to 1 mg of amyloid beta at a concentration of 1 mM, followed by shaking for 1 hour at room temperature using a shaker to remove preaggregation. (2) The amyloid beta from which the preaggregation was removed was dried, and 221.5 uL of DMSO was added thereto to achieve a 1 mM concentration. Using a mixer and sonicator, a suspension thereof was prepared, and 878.5 uL of PBS (1×, pH 7.4) was added thereto to achieve a 0.2 mM concentration. (3) After incubating the suspension at 37° C. for 4 days using a shaker, the polymerized amyloid beta polymer was dispensed by 200 μL. Then, 20 μL of a solution in which each of Gd-DO3A-Pca and the commercial contrast agent (Gadovist®) was dissolved in PBS at 2 mM concentration was added thereto. The incubation was carried out thereon at 37° C. for 24 hours using a shaker. (4) After 24 hours has elapsed, centrifugation was performed thereon to remove the supernatant therefrom. The amyloid beta polymer was washed using PBS. 200 μL of a solution of PBS:DMSO=9:1 was added to a pellet to prepare an MRI phantom sample. As a control, a phantom sample obtained by incubating only the amyloid beta polymer was used. […]"}}}
{"smiles": "O=C([O-])CN1CCN(CC(=O)[O-])CCN([C@H](CO)[C@H](O)CO)CCN(CC(=O)[O-])CC1.[Gd+3]", "note": "(racemic) [Gadovist ®]", "values": [{"measurement": "relaxivity r1", "setting": "[1]", "result": "3.9 ± 0.1"}, {"measurement": "relaxivity r2", "setting": "[1]", "result": "4.8 ± 0.1"}, {"measurement": "contrast enhancement / signal intensity of phantom vs phantom of only amyloid beta polymer", "setting": "[2]", "result": "little difference in contrast enhancement effect"}]}
{"smiles": "CNC[C@H](O)[C@@H](O)[C@H](O)[C@H](O)CO.O=C([O-])CN1CCN(CC(=O)[O-])CCN(CC(=O)O)CCN(CC(=O)[O-])CC1.[Gd+3]", "note": "[Dotarem ®]", "values": [{"measurement": "relaxivity r1", "setting": "[1]", "result": "3.4 ± 0.1"}, {"measurement": "relaxivity r2", "setting": "[1]", "result": "3.9 ± 0.2"}]}
